Results published in patent US6599859B1, “Mulch/herbicide composition” (Dow AgroSciences LLC, priority 2001, dated 2003).

System: weeds
Assay: Weed control by mulch, dithiopyr and mulch/dithiopyr compositions applied to the ground
Format: in vivo
Details: dithiopyr alone, no mulch, application rate 560 grams per hectare
Description: In the following examples, dithiopyr is first dissolved in a warm solvent such as dipropylene glycol at 12-18 percent, by weight. This solution was then sprayed onto a clay carrier.
The results provided by the composition of this invention were compared with the results obtained using the herbicide and the mulch individually.

`CSC(=O)c1c(C(F)F)nc(C(F)(F)F)c(C(=O)SC)c1CC(C)C` [Dithiopyr, 2-difluoromethyl-4-(2-methylpropyl)-6-trifluoromethyl-3,5-pyridinedicarbothioic acid, S,S-dimethyl ester] was tested, and the “% Weed Control” value was 30%.
